Source: patent publication US20250041285A1, “MODIFYING THE […] OF A GENE ENCODING AN CYCLOOXYGENASE ENZYME BY TREATING A HUMAN SUBJECT WITH A NITROXIDE” (priority 2021, published 2025)

Key:
COX1 = assay: Treatment of human subject with Tempol, serum level of COX1; assay type: in vivo; settings: 2000 mg per day for 180 days
Description: A 70-kilogram human subject over the age of 65 and having a cardiovascular disease is identified for an increased expression level of COX1. Or a 70-kilogram human subject over the age of 65 is known to have a cardiovascular disease and/or […] expression level of COX1. The human subject is administered a dose of 2000 mg of Tempol (or another nitroxide antioxidant) per day for 180 days. This may be administered in a single dose, or may be administered as a number of smaller doses over a 24-hour period: for example, four 500-mg doses at […]. Following treatment, the serum level of COX1, is decreased.
A 70-kilogram human subject at risk of developing colorectal cancer is identified for increased expression level of COX1. Or a 70-kilogram human subject is known to be at risk of developing colorectal cancer and/or have increased expression level of COX1. The human subject is administered a dose of 2000 mg of Tempol (or another nitroxide antioxidant) per day for 180 days. This may be administered in a single dose, or may be administered as a number of smaller doses over a 24-hour period: for example, four 500-mg doses at […]. Following treatment, the serum level of COX1, is decreased. […]
A 70-kilogram human subject having an infection (e.g., a bacterial, fungal, or viral infection) is identified for increased expression level of COX1. Or a 70-kilogram human subject is known to have an infection and/or have increased expression level of COX1. The human subject is administered a dose of 2000 mg of Tempol (or another nitroxide antioxidant) per day for 180 days. This may be administered in a single dose, or may be administered as a number of smaller doses over a 24-hour period: for example, four 500-mg doses at […]. Following treatment, the serum level of COX1, is decreased.

PTGS1 (COX1) = assay: Effects of Tempol on gene expression in cardiac tissue, chip-based microarray; assay type: in vivo; settings: mice, Tempol 5 mg/g of food from 14 to 31 months after birth
Description: To assess the effects of Tempol on gene expression, Tempol was administered to experimental mice at a dose of 5 mg/g of food from 14 months to 31 months after birth. Mice receiving the same food without the addition of Tempol were used as a negative control. At the age of 31 months, the experimental animals were sacrificed and the hearts were surgically removed. The expression of a broad spectrum of genes in the cardiac tissue was assessed using chip-based microarray technology. Such chips are well known in the art and are widely used to assess gene expression.

CC1(C)CC(O)CC(C)(C)N1[O] [Tempol, 4-hydroxy-2,2,6,6-tetramethylpiperidine-1-oxyl]
serum level of COX1 following treatment (COX1; Example 2: 70-kilogram human subject over the age of 65 with increased COX1 expression): decreased
serum level of COX1 following treatment (COX1; Example 3: 70-kilogram human subject with increased COX1 expression): decreased
serum level of COX1 following treatment (COX1; Example 4: 70-kilogram human subject over the age of 65 having a cardiovascular disease): decreased
serum level of COX1 following treatment (COX1; Example 5: 70-kilogram human subject at risk of developing colorectal cancer): decreased
serum level of COX1 following treatment (COX1; Example 6: 70-kilogram human subject at risk of developing an autoimmune disease (e.g., rheumatoid arthritis)): decreased
serum level of COX1 following treatment (COX1; Example 7: 70-kilogram human subject at risk of developing a condition due to aging): decreased
serum level of COX1 following treatment (COX1; Example 8: 70-kilogram human subject at risk of developing a neurodegenerative disease (e.g., Parkinson's Disease)): decreased
serum level of COX1 following treatment (COX1; Example 9: 70-kilogram human subject having an infection (bacterial, fungal, or viral)): decreased
Fold change (gene expression in cardiac tissue after Tempol administration) (PTGS1 (COX1); hearts at 31 months, vs same food without Tempol, P-value 0.006): −1.18
COX1 expression in cardiac tissue (PTGS1 (COX1); microarray): statistically significant decrease in expression
